Experiments:
[1] = target: T1, AGR2 (Homo sapiens, UniProt O95994); test: DDA-AGR2 binding assay, Streptavidin-Alkaline Phosphatase blot; parameters: made in house; host or cells: E. coli BL21(DE3), pET-45b(+)
T1 sequence (O95994 21-175): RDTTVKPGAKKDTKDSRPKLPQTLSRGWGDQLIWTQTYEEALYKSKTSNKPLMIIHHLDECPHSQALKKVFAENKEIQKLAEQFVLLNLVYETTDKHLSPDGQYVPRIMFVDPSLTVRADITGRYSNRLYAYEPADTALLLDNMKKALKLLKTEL
Protocol: Competent BL21(DE3) cells were transformed with either the AGR2/pET-45b(+) or AGR2 C81S/pET-45b(+) vectors. Protein expression was induced by the addition of 50 µM Isopropyl β-D-1-thiogalactopyranoside (Fisher Scientific, Fair Lawn, NJ) to bacterial cell cultures for 2.5 hours and shaking at 37° C. Bacterial cells were subsequently pelleted and dissolved in Mouse Tonicity Phosphate Buffered Saline (MTPBS) containing 1% Triton X-100 and sonicated for 20 seconds on ice, followed by centrifugation for 10 min at 4° C. to pellet cell debris. The supernatant was transferred to a new tube, followed by the addition of TALON Resin (Clontech, Mountain View, CA) and mixing on a Nutator for 30 min at 4° C. The TALON Resin was pelleted by centrifugation and washed twice with MTPBS and twice with MTPBS containing 30 mM Imidazole. Protein bound to the TALON Resin was eluted with 400 mM Imidazole and precipitated with 60% saturated ammonium sulfate. The precipitated protein was pelleted by centrifugation, dissolved in MTPBS containing 1 mM DTT and 1 mM EDTA, and subsequently dialyzed against a solution of MTPBS containing 10 μM DTT and 30% Glycerol.
(§1) Purified His6-AGR2 or His6-AGR2 C81S, as prepared above, or His6-AGR2 (PRO-580) or His6-AGR3 (PRO-242) obtained from ProSpec (New Brunswick NJ) were incubated with or without varying concentrations of the unlabeled DDA competitors, tcyDTDO or dMtcyDTDO, and 30 μM Biotin-GlyPyrDTDO or Biotin-PyrDTDO in buffer (20 mM HEPES (pH 7.4), 1 mM EDTA, 1 mM EGTA, 5% Glycerol, 1 nM Microcystin, 1 mM Na3VO4, and 40 mM Na2H2P2O7) containing 1% Triton-X 100 for 30 min at 37° C. […] Therefore, the two probes were used interchangeably. Reactions were stopped by boiling the samples in 2×-SDS-Sample Buffer containing 100 mM NEM for 10 min. Biotin-DDA labeling of protein was verified by blotting with Streptavidin-Alkaline Phosphatase (Rockland Immunochemicals, Inc., Limerick, PA). ERp44 (PRO-547) and PDIA1 (ENZ-262) were obtained from ProSpec and used in experiments examining the binding of these proteins to Biotin-PyrDTDO.

[2] = test system: DR4; test: Disulfide bond-mediated oligomerization, non-reducing immunoblot; format: cell-based
Text: (§2) The BT20, BT474, BT549, MCF7, MDA-MB-231, MDA-MB-436, MDA-MB-468, HCC1143, HCC1500, HCC1569, HCC1937, HCC1954, Hs578t, and T47D cells lines were purchased from American Type Culture Collection (ATCC) (Manassas, VA). The HCI-001 cell line was derived from an ER-/PR-/HER2- patient-derived xenograft originally isolated from a patient as described previously (DeRose Y S, et al. Nat Med 2011; 17: 1514-1520). The HCI-001/LVM2 model was derived from the HCI-001 cell line by performing two rounds of selection for liver metastasis, as described previously (Wang M, et al. Cell Death Discovery 2019; 5: 153). Cell lines were grown in Dulbecco's Modified Eagle's Medium (GE Healthcare Life Sciences, Logan, UT) containing 10% fetal bovine serum (10% FBS—DMEM) in a humidified incubator with 5% CO2 at 37° C. Cell lysates were prepared as described previously (Law B K, et al. Mol Cell Biol. 2002; 22: 8184-8198). Immunoblot analysis was performed utilizing the following antibodies purchased from Cell Signaling Technology (Beverly, MA) [Akt, #4691; P-Akt[T308], #13038; ATF4, #11815; CHOP, #2895; Cleaved Caspase 8, #9496; DR4, #42533; DR5, #8074; EGFR, #4267; GRP78, #3177; HER3, #4754; PARP, #9532; PDIA1, #3501; XBP1s, #12782], from Santa Cruz Biotechnology (Santa Cruz, CA) [Actin, sc-47778; AGR2/3, sc-376653; AGR3, sc-390940; ERO1-a, sc-100805; and ERp44, sc-393687], or from Rockland Immunochemicals, Inc. (Limerick, PA), Streptavidin-Alkaline Phosphatase conjugated (SA-AP), S000-05.
(§3) To assess protein disulfide bond-mediated oligomerization, cells were treated with DDAs for 24 h in 10% FBS-DMEM. Cells were subsequently scraped directly into the media and pelleted by centrifugation. Cells were extracted directly into boiling 2×-SDS-Sample Buffer containing 100 mM NEM and boiled for 10 min. Samples were sonicated, followed by centrifugation for 20 min at room temperature. Samples were subsequently analyzed by SDS-PAGE and immunoblot.

[3] = test system: EGFR; test: as above; format: cell-based; conditions: MDA-MB-468 cells, 24 h, FIG. 1E right
Text: as §2, §3

[4] = target: T2, ERp44 (Homo sapiens, UniProt Q9BS26); test: In vitro binding assay with recombinant purified ERp44; conditions: pre-incubation with a molar excess, FIG. 3D
T2 sequence (Q9BS26 30-406): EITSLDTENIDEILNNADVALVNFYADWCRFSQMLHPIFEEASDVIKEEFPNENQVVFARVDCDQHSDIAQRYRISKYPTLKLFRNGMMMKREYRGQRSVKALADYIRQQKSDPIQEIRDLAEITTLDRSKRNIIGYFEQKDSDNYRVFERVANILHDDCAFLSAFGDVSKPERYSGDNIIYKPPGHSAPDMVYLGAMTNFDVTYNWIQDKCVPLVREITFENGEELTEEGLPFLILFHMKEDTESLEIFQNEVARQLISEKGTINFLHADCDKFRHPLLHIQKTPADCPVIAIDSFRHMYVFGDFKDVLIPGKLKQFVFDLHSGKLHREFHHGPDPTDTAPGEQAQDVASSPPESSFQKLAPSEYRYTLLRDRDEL
Protocol: as §1

[5] = test system: Caspase 8; test: Caspase 8 cleavage/activation (CC8), immunoblot; format: cell-based; conditions: 24 h
Text: The BT20, BT474, BT549, MCF7, MDA-MB-231, MDA-MB-436, MDA-MB-468, HCC1143, HCC1500, HCC1569, HCC1937, HCC1954, Hs578t, and T47D cells lines were purchased from American Type Culture Collection (ATCC) (Manassas, VA). The HCI-001 cell line was derived from an ER-/PR-/HER2- patient-derived xenograft originally isolated from a patient as described previously (DeRose Y S, et al. Nat Med 2011; 17: 1514-1520). The HCI-001/LVM2 model was derived from the HCI-001 cell line by performing two rounds of selection for liver metastasis, as described previously (Wang M, et al. Cell Death Discovery 2019; 5: 153). Cell lines were grown in Dulbecco's Modified Eagle's Medium (GE Healthcare Life Sciences, Logan, UT) containing 10% fetal bovine serum (10% FBS—DMEM) in a humidified incubator with 5% CO2 at 37° C. Cell lysates were prepared as described previously (Law B K, et al. Mol Cell Biol. 2002; 22: 8184-8198). […]
To assess protein disulfide bond-mediated oligomerization, cells were treated with DDAs for 24 h in 10% FBS-DMEM. […] Samples were subsequently analyzed by SDS-PAGE and immunoblot.

CO[C@H]1C[C@@H]2CS(=O)(=O)SC[C@H]2C[C@@H]1OC [dMtcyDTDO, dimethoxy-tcyDTDO]
Ability to block Biotin-GlyPyrDTDO binding to AGR2, compared with tcyDTDO ([1]; FIG. 2E, 9E-F): more effective competitor
Competition with Biotin-GlyPyrDTDO binding to AGR2 ([1]; molar excess, pre-incubation with 600 μM, FIG. 2D): partially prevented Biotin-GlyPyrDTDO binding
Levels and oligomerization of DR4, densitometry ([2]; 0, 1.25, 2.5, 5 uM, FIG. 1F): increases DR4 oligomerization without affecting overall DR4 levels
Concentration at which disulfide-mediated oligomerization of DR4 was detected ([2]; MDA-MB-468 cells, 24 h, FIG. 1E right): 625 nM
DR4/5 oligomerization at the same concentration (DR4) ([2]; MDA-MB-468 cells, 24 h, compared with tcyDTDO, FIG. 1E left): more DR4/5 oligomerization
Concentration at which disulfide-mediated oligomerization of EGFR was detected [3]: 625 nM
Block of Biotin-PyrDTDO biotinylation of ERp44 [4]: biotinylation was blocked
Induction of Caspase 8 cleavage/activation (CC8) in ERp44 knockdown versus vector control cells ([5]; MDA-MB-468 cells, 2.5 or 5 μM, FIG. 5D): increased dMtcyDTDO induction of Caspase 8 cleavage/activation
Caspase 8 cleavage in cells expressing C119S or C160S DR5 mutants ([5]; MDA-MB-468 stable cell lines, FIG. 7E): modestly increased Caspase 8 cleavage
